Measurements published in PubChem BioAssay AID2060883 (Molecular Pharmacology Branch, DTP, NCI, 2025).
Values belong to the compound of their own block, whether it stands above or below them.

System: 843782-103-R-J1-PDC complex spheroid viability
Test: Anticancer human tumor 843782-103-R-J1-PDC patient-derived lung adenocarcinoma cell line growth inhibition [RAS]
Settings: for IC50: curve of first compound; for viability, T/C: stronger effect = lower value
How it was run: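 Agents were tested in combination matrices in half-log decrements from a top concentration at or near clinical Cmax (10 microM if undetermined). Targets were multi-cell spheroids of tumour lines plus HUVEC and MSC stromal cells.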

[1] = second compound 0.000949 µM, first compound 0.0316 µM
[2] = second compound 0.000949 µM, first compound 0.1 µM
[3] = second compound 0.000949 µM, first compound 0.316 µM
[4] = second compound 0.000949 µM, first compound 1 µM
[5] = second compound 0.000949 µM, first compound 3.16 µM
[6] = second compound 0.000949 µM, first compound 10 µM
[7] = second compound 0.003 µM, first compound 0.0316 µM
[8] = second compound 0.003 µM, first compound 0.1 µM
[9] = second compound 0.003 µM, first compound 0.316 µM
[10] = second compound 0.003 µM, first compound 1 µM
[11] = second compound 0.003 µM, first compound 3.16 µM
[12] = second compound 0.003 µM, first compound 10 µM
[13] = second compound 0.00949 µM, first compound 0.0316 µM
[14] = second compound 0.00949 µM, first compound 0.1 µM
[15] = second compound 0.00949 µM, first compound 0.316 µM
[16] = second compound 0.00949 µM, first compound 1 µM
[17] = second compound 0.00949 µM, first compound 3.16 µM
[18] = second compound 0.00949 µM, first compound 10 µM
[19] = second compound 0.03 µM, first compound 0.0316 µM
[20] = second compound 0.03 µM, first compound 0.1 µM
[21] = second compound 0.03 µM, first compound 0.316 µM
[22] = second compound 0.03 µM, first compound 1 µM
[23] = second compound 0.03 µM, first compound 3.16 µM
[24] = second compound 0.03 µM, first compound 10 µM
[25] = second compound 0.0949 µM, first compound 0.0316 µM
[26] = second compound 0.0949 µM, first compound 0.1 µM
[27] = second compound 0.0949 µM, first compound 0.316 µM
[28] = second compound 0.0949 µM, first compound 1 µM
[29] = second compound 0.0949 µM, first compound 3.16 µM
[30] = second compound 0.0949 µM, first compound 10 µM
[31] = second compound 0.3 µM, first compound 0.0316 µM
[32] = second compound 0.3 µM, first compound 0.1 µM
[33] = second compound 0.3 µM, first compound 0.316 µM
[34] = second compound 0.3 µM, first compound 1 µM
[35] = second compound 0.3 µM, first compound 3.16 µM
[36] = second compound 0.3 µM, first compound 10 µM
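Also: viability read after seven days of compound exposure.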

IC50 (second compound 0.000949 µM): 511 nM
IC50 (second compound 0.003 µM): 242 nM
IC50 (second compound 0.00949 µM): < 31.6 nM
IC50 (second compound 0.03 µM): < 31.6 nM
IC50 (second compound 0.0949 µM): < 31.6 nM
IC50 (second compound 0.3 µM): < 31.6 nM
Compound: CC(C)NCC(C(=O)N1CCN(c2ncnc3c2C(C)CC3O)CC1)c1ccc(Cl)cc1 (stereo not drawn) + CCn1c(-c2cc(N3CCN(C)CC3)cnc2C(C)OC)c2c3cc(ccc31)-c1csc(n1)CC(NC(=O)C1CC1C)C(=O)N1CCCC(N1)C(=O)OCC(C)(C)C2
viability, T/C [1]: 80.6%
viability, T/C [2]: 73.9%
viability, T/C [3]: 64.6%
viability, T/C [4]: 30.4%
viability, T/C [5]: 14.7%
viability, T/C [6]: 6.49%
viability, T/C [7]: 62.2%
viability, T/C [8]: 63.7%
viability, T/C [9]: 44.8%
viability, T/C [10]: 25.8%
viability, T/C [11]: 10.7%
viability, T/C [12]: 5.07%
viability, T/C [13]: 39.6%
viability, T/C [14]: 38%
viability, T/C [15]: 24.9%
viability, T/C [16]: 15%
viability, T/C [17]: 8.4%
viability, T/C [18]: 4.07%
viability, T/C [19]: 22.4%
viability, T/C [20]: 25%
viability, T/C [21]: 16.6%
viability, T/C [22]: 9.92%
viability, T/C [23]: 7.32%
viability, T/C [24]: 2.47%
viability, T/C [25]: 16.7%
viability, T/C [26]: 18%
viability, T/C [27]: 13.8%
viability, T/C [28]: 8.39%
viability, T/C [29]: 5.39%
viability, T/C [30]: 2.13%
viability, T/C [31]: 18%
viability, T/C [32]: 14%
viability, T/C [33]: 12.4%
viability, T/C [34]: 7.41%
viability, T/C [35]: 3.93%
viability, T/C [36]: 1.56%

IC50 (second compound 0.000949 µM): 5.34 nM
IC50 (second compound 0.003 µM): 3.42 nM
IC50 (second compound 0.00949 µM): < 0.316 nM
IC50 (second compound 0.03 µM): < 0.316 nM
IC50 (second compound 0.0949 µM): < 0.316 nM
IC50 (second compound 0.3 µM): < 0.316 nM
Compound: CC(C)n1nc(-c2ccc3oc(N)nc3c2)c2c(N)ncnc21 + CCn1c(-c2cc(N3CCN(C)CC3)cnc2C(C)OC)c2c3cc(ccc31)-c1csc(n1)CC(NC(=O)C1CC1C)C(=O)N1CCCC(N1)C(=O)OCC(C)(C)C2
viability, T/C (second compound 0.000949 µM, first compound 0.000316 µM): 73%
viability, T/C (second compound 0.000949 µM, first compound 0.001 µM): 70.4%
viability, T/C (second compound 0.000949 µM, first compound 0.00316 µM): 58.7%
viability, T/C (second compound 0.000949 µM, first compound 0.01 µM): 38.6%
viability, T/C [1]: 24.8%
viability, T/C [2]: 13.5%
viability, T/C (second compound 0.003 µM, first compound 0.000316 µM): 49.6%
viability, T/C (second compound 0.003 µM, first compound 0.001 µM): 57.5%
viability, T/C (second compound 0.003 µM, first compound 0.00316 µM): 52.5%
viability, T/C (second compound 0.003 µM, first compound 0.01 µM): 27.7%
viability, T/C [7]: 19.7%
viability, T/C [8]: 11%
viability, T/C (second compound 0.00949 µM, first compound 0.000316 µM): 36.5%
viability, T/C (second compound 0.00949 µM, first compound 0.001 µM): 36.6%
viability, T/C (second compound 0.00949 µM, first compound 0.00316 µM): 28.2%
viability, T/C (second compound 0.00949 µM, first compound 0.01 µM): 19.7%
viability, T/C [13]: 11.6%
viability, T/C [14]: 7.59%
viability, T/C (second compound 0.03 µM, first compound 0.000316 µM): 22.3%
viability, T/C (second compound 0.03 µM, first compound 0.001 µM): 19.4%
viability, T/C (second compound 0.03 µM, first compound 0.00316 µM): 13.2%
viability, T/C (second compound 0.03 µM, first compound 0.01 µM): 12.6%
viability, T/C [19]: 7.81%
viability, T/C [20]: 4.67%
viability, T/C (second compound 0.0949 µM, first compound 0.000316 µM): 15.6%
viability, T/C (second compound 0.0949 µM, first compound 0.001 µM): 13.8%
viability, T/C (second compound 0.0949 µM, first compound 0.00316 µM): 12.8%
viability, T/C (second compound 0.0949 µM, first compound 0.01 µM): 10.3%
viability, T/C [25]: 7.44%
viability, T/C [26]: 4.77%
viability, T/C (second compound 0.3 µM, first compound 0.000316 µM): 13.9%
viability, T/C (second compound 0.3 µM, first compound 0.001 µM): 13.4%
viability, T/C (second compound 0.3 µM, first compound 0.00316 µM): 10.7%
viability, T/C (second compound 0.3 µM, first compound 0.01 µM): 9.85%
viability, T/C [31]: 6.87%
viability, T/C [32]: 3.78%

IC50 (second compound 0.000949 µM): 77 nM
IC50 (second compound 0.003 µM): < 31.6 nM
IC50 (second compound 0.00949 µM): < 31.6 nM
IC50 (second compound 0.03 µM): < 31.6 nM
IC50 (second compound 0.0949 µM): < 31.6 nM
IC50 (second compound 0.3 µM): < 31.6 nM
Compound: CC(Nc1ccc2c(c1)OCCn1cc(N3C(=O)OCC3C(F)F)nc1-2)C(N)=O (stereo not drawn) + CCn1c(-c2cc(N3CCN(C)CC3)cnc2C(C)OC)c2c3cc(ccc31)-c1csc(n1)CC(NC(=O)C1CC1C)C(=O)N1CCCC(N1)C(=O)OCC(C)(C)C2
viability, T/C [1]: 58%
viability, T/C [2]: 48.6%
viability, T/C [3]: 29.5%
viability, T/C [4]: 17.9%
viability, T/C [5]: 15.6%
viability, T/C [6]: 8.54%
viability, T/C [7]: 46.8%
viability, T/C [8]: 31.7%
viability, T/C [9]: 23.1%
viability, T/C [10]: 14.1%
viability, T/C [11]: 10.7%
viability, T/C [12]: 5.42%
viability, T/C [13]: 28%
viability, T/C [14]: 17.1%
viability, T/C [15]: 17%
viability, T/C [16]: 10.7%
viability, T/C [17]: 9.87%
viability, T/C [18]: 3.83%
viability, T/C [19]: 17.1%
viability, T/C [20]: 13.6%
viability, T/C [21]: 10.8%
viability, T/C [22]: 8.39%
viability, T/C [23]: 6.08%
viability, T/C [24]: 2.39%
viability, T/C [25]: 15.7%
viability, T/C [26]: 10.8%
viability, T/C [27]: 9.99%
viability, T/C [28]: 6.85%
viability, T/C [29]: 4.41%
viability, T/C [30]: 3.16%
viability, T/C [31]: 16.4%
viability, T/C [32]: 10.4%
viability, T/C [33]: 7.76%
viability, T/C [34]: 7.43%
viability, T/C [35]: 5.53%
viability, T/C [36]: 2.56%

IC50 (second compound 0.000949 µM): > 10000 nM
IC50 (second compound 0.003 µM): > 10000 nM
IC50 (second compound 0.00949 µM): < 31.6 nM
IC50 (second compound 0.03 µM): < 31.6 nM
IC50 (second compound 0.0949 µM): < 31.6 nM
IC50 (second compound 0.3 µM): < 31.6 nM
Compound: C[C@@H](NC(=O)c1ncnc(N)c1Cl)c1ncc(C(=O)Nc2cc(C(F)(F)F)c(Cl)cn2)s1 + CCn1c(-c2cc(N3CCN(C)CC3)cnc2C(C)OC)c2c3cc(ccc31)-c1csc(n1)CC(NC(=O)C1CC1C)C(=O)N1CCCC(N1)C(=O)OCC(C)(C)C2
viability, T/C [1]: 84.4%
viability, T/C [2]: 78.1%
viability, T/C [3]: 85.8%
viability, T/C [4]: 79.6%
viability, T/C [5]: 89.8%
viability, T/C [6]: 84.3%
viability, T/C [7]: 68.9%
viability, T/C [8]: 70%
viability, T/C [9]: 67.5%
viability, T/C [10]: 68.6%
viability, T/C [11]: 74.6%
viability, T/C [12]: 64.7%
viability, T/C [13]: 41%
viability, T/C [14]: 51.6%
viability, T/C [15]: 48.4%
viability, T/C [16]: 44%
viability, T/C [17]: 53.6%
viability, T/C [18]: 48.2%
viability, T/C [19]: 22.9%
viability, T/C [20]: 26.2%
viability, T/C [21]: 28.8%
viability, T/C [22]: 32.5%
viability, T/C [23]: 34.7%
viability, T/C [24]: 33.4%
viability, T/C [25]: 19.8%
viability, T/C [26]: 18.8%
viability, T/C [27]: 19.8%
viability, T/C [28]: 21.6%
viability, T/C [29]: 24.3%
viability, T/C [30]: 23.7%
viability, T/C [31]: 15.4%
viability, T/C [32]: 15.6%
viability, T/C [33]: 19.1%
viability, T/C [34]: 17.5%
viability, T/C [35]: 19.6%
viability, T/C [36]: 18.6%
